Legend:
[1] = system: EpiGingival™ tissue models; assay: Tissue zinc uptake analysis; assay type: in vitro ADME; conditions: 2 minute treatment
Procedure: All samples were prepared in a final concentration of 1% DMSO in 7% of Propylene Glycol (PG). […] For the vehicle only control, 1% DMSO in 7% PG was used. All samples were equilibrated to 37° C. prior to testing.
Zinc uptake studies were performed using EpiGingival™ tissue models from MatTek Corporation. Briefly, EpiGingival™ tissue inserts were equilibrated overnight in 1 ml of the EpiGingival™ assay media (supplied by MatTek Corporation). For testing, working with one insert at a time, the insert was removed and placed inside a clean 6 well plate. Then, 1 ml of the test sample was carefully removed and introduced to the inside of the insert and allowed to incubate for 2 minutes. Next, the samples were removed using an aspirator and the tissue rinsed with 1 ml of warm water (37° C.). This was repeated for 2 more times for a total of 3 washes. At the end of the last wash making sure to remove as much of the water as possible, the tissue was disengaged from the insert with the tip of a sterile forceps, and transferred into a clean 15 ml Falcon tube. The process was repeated until all the tissues were treated. Experiments were performed three times with each test sample assayed in duplicate.
Digestion of Tissues: Briefly, 0.5 ml of a mixture of 7:3 HCl/HNO3 was introduced into a 15 ml Falcon tube containing one of the treated tissue samples and allowed to digest overnight. The following day, 4.5 ml of water was added to each of the digested tissue samples, thoroughly mixed and centrifuged at 4,000 RPM for 10 minutes at room temperature. The clear supernatant (4.5 ml) was transferred into a clean, labeled Falcon tube and submitted for analytical analysis of Zinc.
A one way ANOVA was done to determine the p value. A plot of the average zinc (ppm) against the various treatments was generated (see FIG. 19).

[2] = Growth inhibition (OD610), mixed chemostat culture; assay type: cell-based, A. viscosus, L. casei, S. oralis, F. nucleatum, V. parvula; conditions: Mixed species incubated in 37° C.
Procedure: Single species of Streptococcus gordonii (S. gordonii, S.g) strain V288 (ATCC #35105), Streptococcus sobrinus (S. sobrinus, S.$) strain SL1[CCM 6070, CNCTC 9/89] (ATCC #33478), or Aggregatibacter actinomycetemcomitans were analyzed. Also, a mixed culture containing Actinomyces viscosus (A. viscosus, A.v) strain (ATCC, #43146), Lactobacillus casei (L. casei, L.c) strain (ATCC #334), Streptococcus oralis (S. oralis, S. o) strain (ATCC #35037), Fusobacterium nucleatum (F. nucleatum, F. n) strain (ATCC #10953), and Veilonella parvula (V. parvula, V. p) strain (ATCC #17745) was also analyzed for growth inhibition/toxicity activity. Bacteria were cultured overnight in approximately 20 ml of BHI broth (BD, cat #237500) or maintained in a specialized complex modified BHI II medium in a continuous culture chemostat at 37° C. respectively. The following day, the OD610 were determined and solutions diluted to an OD610 of 0.2 or 0.1 respectively for the assay.
Triclosan (positive control) was prepared as a 10% stock in 100% EtOH and 3 fold serial dilutions were performed in 100% EtOH. An appropriate amount of the diluted samples was then transferred into a 96 well clear plate such that the resulting final concentration of the test samples ranged from either a 2 mM or 4 mM (highest concentration) to 0.0078 mM or 0.0156 mM (lowest concentration respectively) in 2% DMSO in 100 μl media per well. Triclosan (TCN) ranged from 0.01% to 1.67e-6% in 1% EtOH. For Zinc acetate, in order to mimic the 2:1 molar ratio (ligand:Zinc) in the Naringin:Zinc complex, the final concentration ranged from 0.7 mM to 0.0027 mM for samples with 2 mM as the highest concentration and 1.33 mM to […] for samples with 4 mM as the highest concentration in 2% DMSO. Next, 100 μl of bacterial culture at OD610 0.2 were introduced to the wells with the test samples. The wells were thoroughly mixed and incubated at 37° C. overnight. The plates were read using an Envision plate reader (PerkinElmer, Waltham, Mass.) at 610 nm.
The IC50 for the complex, Product 5, was determined for Streptococcus gordonii (S. gordonii), Streptococcus sobrinus (S. sobrinus), Aggregatibacter actinomycetemcomitans (A. actinomycetemcomitans), and also for the mixed bacterial culture. […] Triclosan (TCN) was included as a positive control for bacterial inhibition.
Antimicrobial characterization was also performed on mixed culture solutions having at least five microbial species present. A mixed culture containing Actinomyces viscosus (A. viscosus, A.v) (ATCC, #43146), Lactobacillus casei (L. casei, L.c) (ATCC #334), Streptococcus oralis (S. oralis, S.o) (ATCC #35037), Fusobacterium nucleatum (F. nucleatum, F.n) (ATCC #10953) and Veilonella parvula (V. parvula, V.p) (ATCC #17745) was maintained in a specialized complex medium (Modified BHI II Medium) in a continuous culture chemostat at 37° C. Approximately 10 ml of the culture was removed and the OD610 was determined. The assay was performed using cultures at two concentrations; 0.03 and 0.1 at OD610. […] Triclosan (positive control) was prepared as a 10% stock in 100% EtOH and 3 fold serial dilutions were performed in 100% EtOH. […] For Zinc Acetate, in order to mimic the 2:1 ratio (ligand:Zinc) composition as in the complex, the final concentration range from 0.7 mM to 0.0027 mM in 2% DMSO was used instead.
A 100 μl of bacterial culture at chosen OD610 (0.03 or 0.1) was introduced into the wells with the test samples. The wells were thoroughly mixed and plates incubated overnight in a 37° C. incubator with or without 5% CO2. After approximately 12-13 hours of treatment, the plate was read using Envision plate reader (Serial #1040984), absorbance at 610 nm. The % inhibition relative to control was determined as described for previously described antimicrobial protocols, supra.

[3] = 1 mM complex or combination, 0.33 mM Zinc acetate

Structure (SMILES)	Zn (ppm) Preparation 1 N1 ([1]; 1 mM complex or combination (0.67 mM + 0.33 mM), 0.33 mM Zinc acetate)	Zn (ppm) Preparation 1 N2 [1, 3]	Zn (ppm) Preparation 2 N1 [1, 3]	Zn (ppm) Preparation 2 N2 [1, 3]	Zn (ppm) Preparation 3 N1 [1, 3]	Zn (ppm) Preparation 3 N2 [1, 3]	Zn Ave (ppm) ([1]; average of three preparations in duplicate)	inhibition at 250 µM ([2]; 5% CO2 (anaerobic), 0.25 mM (combination 0.1625 mM + 0.0875 mM, 0.25 mM total))	inhibition at 250 µM ([2]; Air (aerobic), 0.25 mM (combination 0.25 mM total))
CC(=O)[O-].CC(=O)[O-].[Zn+2] [Zinc Acetate alone, Zinc (II) Acetate]	0.96 ppm	0.92 ppm	0.82 ppm	0.81 ppm	0.84 ppm	0.85 ppm	0.87 ppm	–	–
C[C@@H]1O[C@@H](O[C@H]2[C@H](Oc3cc(O)c4c(c3)O[C@H](c3ccc(O)cc3)CC4=O)O[C@H](CO)[C@@H](O)[C@@H]2O)[C@H](O)[C@H](O)[C@H]1O [Naringin]	–	–	–	–	–	–	–	3.51 ± 1.53%	3.1 ± 3.31%

From patent publication US10548829B2, “Oral care compositions and methods of use” (priority 2016, dated 2020)
